Measurements reported in ChEMBL document CHEMBL3137667, “[Drug-induced liver injury; fourteenth updated edition of the bibliographic database of liver injuries and related drugs]” (Gastroenterol Clin Biol, 2004).

How the values were obtained:
[1] = human
[2] = Highest frequency of moderate liver toxicity observed during clinical trials, expressed as a percentage. [column '% BIOL' in source]; settings: human
[3] = human; remark: listed apart in the source
[4] = human; remark: listed apart in the source
[5] = human, serum
[6] = human; remark: listed apart in the source
[7] = Highest frequency of acute liver toxicity observed during clinical trials, expressed as a percentage. [column '% AIGUE' in source]; settings: human
[8] = human; remark: listed apart in the source
[9] = human; remark: listed apart in the source
[10] = human, serum, 4383 h
[11] = human; remark: listed apart in the source
[12] = human; remark: listed apart in the source
[13] = human, serum; remark: listed apart in the source
[14] = human; remark: listed apart in the source
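Wherever Hepatotoxicity (association with vascular disease) is given: count of indexed literature references reporting vascular liver injury in humans, e.g. peliosis hepatitis, hepatic veno-occlusive disease or Budd-Chiari syndrome.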
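Wherever Hepatotoxicity (benign tumour) is given: value is a count of indexed literature references citing a benign tumour confirmed by histopathology.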
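Wherever Hepatotoxicity (choleostasis) is given: human cholestatic liver injury, shown by histopathology or by peak ALT or AST elevation over alkaline phosphatase ratio below 2, value counts indexed literature reports.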
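Wherever Hepatotoxicity (chronic liver disease) is given: chronic liver injury confirmed by histopathology or persistently raised serum aminotransferase activity beyond 6 months, value given as the count of indexed literature references.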
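Wherever Hepatotoxicity (cirrhosis) is given: value is a count of indexed literature references reporting cirrhosis confirmed by histopathology.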
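Wherever Hepatotoxicity (cytolytic) is given: human cytolytic liver injury, shown by histopathology or by a ratio above 5 of peak ALT or AST elevation to alkaline phosphatase elevation, value counts indexed references.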
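Wherever Hepatotoxicity (granulomatous hepatitis) is given: value is a count of indexed literature references reporting granulomatous liver disease confirmed by histopathology.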
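Wherever Hepatotoxicity (malignant tumour) is given: malignant tumour confirmed by histopathology, value gives the count of indexed literature references reporting it.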
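Wherever Hepatotoxicity (severe hepatitis) is given: human clinical data: severe hepatitis, meaning potentially life-threatening liver failure or clinically observed cases, the value counts how many indexed literature references report it.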
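Wherever Hepatotoxicity (steatosis) is given: steatosis confirmed by histopathology, value is the count of indexed references.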

Compound: CCOc1ccccc1OCC1CNCCO1 (stereo not drawn) [VILOXAZINE]
- Hepatotoxicity (cirrhosis) [1]: 0
- Hepatotoxicity (moderate) ([2]; Liver): 0%
- Hepatotoxicity (steatosis) [3]: 0
- Hepatotoxicity (association with vascular disease) [4]: 0
- Hepatotoxicity (acute) [5]: 1
- Hepatotoxicity (severe hepatitis) ([6]; Liver): 0
- Hepatotoxicity (acute) ([7]; Liver): 0%
- Hepatotoxicity (benign tumour) [8]: 0
- Hepatotoxicity (granulomatous hepatitis) ([9]; Liver): 0
- Hepatotoxicity (chronic liver disease) [10]: 0
- Hepatotoxicity (choleostasis) ([11]; Liver): 0
- Hepatotoxicity (malignant tumour) [12]: 0
- Hepatotoxicity (moderate) [13]: 2
- Hepatotoxicity (cytolytic) ([14]; Liver): 1

Compound: Cc1ncc(-c2csc(N=C(N)N)n2)[nH]1 [ZALTIDINE]
- Hepatotoxicity (cirrhosis) [1]: 0
- Hepatotoxicity (moderate) [2]: 94%
- Hepatotoxicity (steatosis) [3]: 0
- Hepatotoxicity (association with vascular disease) [4]: 0
- Hepatotoxicity (acute) [5]: 1
- Hepatotoxicity (severe hepatitis) [6]: 0
- Hepatotoxicity (acute) [7]: 8%
- Hepatotoxicity (benign tumour) [8]: 0
- Hepatotoxicity (granulomatous hepatitis) [9]: 0
- Hepatotoxicity (chronic liver disease) [10]: 0
- Hepatotoxicity (choleostasis) [11]: 0
- Hepatotoxicity (malignant tumour) [12]: 0
- Hepatotoxicity (moderate) [13]: 1
- Hepatotoxicity (cytolytic) [14]: 1

Compound: O=C(O)Cn1c(=O)n(Cc2ccc(Br)cc2F)c(=O)c2ccc(Cl)cc21 [ZENARESTAT]
- Hepatotoxicity (cirrhosis) [1]: 0
- Hepatotoxicity (moderate) [2]: 9.5%
- Hepatotoxicity (steatosis) [3]: 0
- Hepatotoxicity (association with vascular disease) [4]: 0
- Hepatotoxicity (acute) [5]: 0
- Hepatotoxicity (severe hepatitis) [6]: 0
- Hepatotoxicity (acute) [7]: 0%
- Hepatotoxicity (benign tumour) [8]: 0
- Hepatotoxicity (granulomatous hepatitis) [9]: 0
- Hepatotoxicity (chronic liver disease) [10]: 0
- Hepatotoxicity (choleostasis) [11]: 0
- Hepatotoxicity (malignant tumour) [12]: 0
- Hepatotoxicity (moderate) [13]: 1
- Hepatotoxicity (cytolytic) [14]: 0

Compound: O=C1Cc2cc(CCN3CCN(c4nsc5ccccc45)CC3)c(Cl)cc2N1 [ZIPRASIDONE]
- Hepatotoxicity (cirrhosis) [1]: 0
- Hepatotoxicity (moderate) [2]: 1.2%
- Hepatotoxicity (steatosis) [3]: 0
- Hepatotoxicity (association with vascular disease) [4]: 0
- Hepatotoxicity (acute) [5]: 0
- Hepatotoxicity (severe hepatitis) [6]: 0
- Hepatotoxicity (acute) [7]: 0%
- Hepatotoxicity (benign tumour) [8]: 0
- Hepatotoxicity (granulomatous hepatitis) [9]: 0
- Hepatotoxicity (chronic liver disease) [10]: 0
- Hepatotoxicity (choleostasis) [11]: 0
- Hepatotoxicity (malignant tumour) [12]: 0
- Hepatotoxicity (moderate) [13]: 1
- Hepatotoxicity (cytolytic) [14]: 0

Compound: C[C@H](CSC(=O)c1ccccc1)C(=O)N1C[C@@H](Sc2ccccc2)C[C@H]1C(=O)O [ZOFENOPRIL]
- Hepatotoxicity (cirrhosis) [1]: 0
- Hepatotoxicity (moderate) [2]: 5.3%
- Hepatotoxicity (steatosis) [3]: 0
- Hepatotoxicity (association with vascular disease) [4]: 0
- Hepatotoxicity (acute) [5]: 0
- Hepatotoxicity (severe hepatitis) [6]: 0
- Hepatotoxicity (acute) [7]: 0%
- Hepatotoxicity (benign tumour) [8]: 0
- Hepatotoxicity (granulomatous hepatitis) [9]: 0
- Hepatotoxicity (chronic liver disease) [10]: 0
- Hepatotoxicity (choleostasis) [11]: 0
- Hepatotoxicity (malignant tumour) [12]: 0
- Hepatotoxicity (moderate) [13]: 1
- Hepatotoxicity (cytolytic) [14]: 0

Compound: CN(C)CCc1c[nH]c2ccc(C[C@H]3COC(=O)N3)cc12 [ZOLMITRIPTAN]
- Hepatotoxicity (cirrhosis) [1]: 0
- Hepatotoxicity (moderate) [2]: 0%
- Hepatotoxicity (steatosis) [3]: 0
- Hepatotoxicity (association with vascular disease) [4]: 0
- Hepatotoxicity (acute) [5]: 0
- Hepatotoxicity (severe hepatitis) [6]: 0
- Hepatotoxicity (acute) [7]: 0%
- Hepatotoxicity (benign tumour) [8]: 0
- Hepatotoxicity (granulomatous hepatitis) [9]: 0
- Hepatotoxicity (chronic liver disease) [10]: 0
- Hepatotoxicity (choleostasis) [11]: 0
- Hepatotoxicity (malignant tumour) [12]: 0
- Hepatotoxicity (moderate) [13]: 1
- Hepatotoxicity (cytolytic) [14]: 0

Compound: NS(=O)(=O)Cc1noc2ccccc12 [ZONISAMIDE]
- Hepatotoxicity (cirrhosis) [1]: 0
- Hepatotoxicity (moderate) [2]: 4.2%
- Hepatotoxicity (steatosis) [3]: 0
- Hepatotoxicity (association with vascular disease) [4]: 0
- Hepatotoxicity (acute) [5]: 0
- Hepatotoxicity (severe hepatitis) [6]: 0
- Hepatotoxicity (acute) [7]: 0%
- Hepatotoxicity (benign tumour) [8]: 0
- Hepatotoxicity (granulomatous hepatitis) [9]: 0
- Hepatotoxicity (chronic liver disease) [10]: 0
- Hepatotoxicity (choleostasis) [11]: 0
- Hepatotoxicity (malignant tumour) [12]: 0
- Hepatotoxicity (moderate) [13]: 2
- Hepatotoxicity (cytolytic) [14]: 0

Compound: O=C(O)Cc1nn(Cc2nc3cc(C(F)(F)F)ccc3s2)c(=O)c2ccccc12 [ZOPOLRESTAT]
- Hepatotoxicity (cirrhosis) [1]: 0
- Hepatotoxicity (moderate) [2]: 11.6%
- Hepatotoxicity (steatosis) [3]: 0
- Hepatotoxicity (association with vascular disease) [4]: 0
- Hepatotoxicity (acute) [5]: 0
- Hepatotoxicity (severe hepatitis) [6]: 0
- Hepatotoxicity (acute) [7]: 0%
- Hepatotoxicity (benign tumour) [8]: 0
- Hepatotoxicity (granulomatous hepatitis) [9]: 0
- Hepatotoxicity (chronic liver disease) [10]: 0
- Hepatotoxicity (choleostasis) [11]: 0
- Hepatotoxicity (malignant tumour) [12]: 0
- Hepatotoxicity (moderate) [13]: 1
- Hepatotoxicity (cytolytic) [14]: 0

Compound: COc1cccc2c1C(=O)c1c(O)c3c(c(O)c1C2=O)C[C@@](O)(/C(C)=N/NC(=O)c1ccccc1)C[C@@H]3O[C@H]1C[C@H](N)[C@H](O)[C@H](C)O1 [ZORUBICIN]
- Hepatotoxicity (cirrhosis) [1]: 0
- Hepatotoxicity (moderate) [2]: 51.7%
- Hepatotoxicity (steatosis) [3]: 0
- Hepatotoxicity (association with vascular disease) [4]: 0
- Hepatotoxicity (acute) [5]: 1
- Hepatotoxicity (severe hepatitis) [6]: 1
- Hepatotoxicity (acute) [7]: 17.2%
- Hepatotoxicity (benign tumour) [8]: 0
- Hepatotoxicity (granulomatous hepatitis) [9]: 0
- Hepatotoxicity (chronic liver disease) [10]: 0
- Hepatotoxicity (choleostasis) [11]: 1
- Hepatotoxicity (malignant tumour) [12]: 0
- Hepatotoxicity (moderate) [13]: 1
- Hepatotoxicity (cytolytic) [14]: 0

Compound: CN(C)CCOC1=Cc2ccccc2Sc2ccc(Cl)cc21 [ZOTEPINE]
- Hepatotoxicity (cirrhosis) [1]: 0
- Hepatotoxicity (moderate) [2]: 34.8%
- Hepatotoxicity (steatosis) [3]: 0
- Hepatotoxicity (association with vascular disease) [4]: 0
- Hepatotoxicity (acute) [5]: 0
- Hepatotoxicity (severe hepatitis) [6]: 0
- Hepatotoxicity (acute) [7]: 0%
- Hepatotoxicity (benign tumour) [8]: 0
- Hepatotoxicity (granulomatous hepatitis) [9]: 0
- Hepatotoxicity (chronic liver disease) [10]: 0
- Hepatotoxicity (choleostasis) [11]: 0
- Hepatotoxicity (malignant tumour) [12]: 0
- Hepatotoxicity (moderate) [13]: 8
- Hepatotoxicity (cytolytic) [14]: 0

Compound: OCCN1CCN(CC/C=C2/c3ccccc3Sc3ccc(Cl)cc32)CC1 [ZUCLOPENTHIXOL]
- Hepatotoxicity (cirrhosis) [1]: 0
- Hepatotoxicity (moderate) [2]: 19%
- Hepatotoxicity (steatosis) [3]: 0
- Hepatotoxicity (association with vascular disease) [4]: 0
- Hepatotoxicity (acute) [5]: 0
- Hepatotoxicity (severe hepatitis) [6]: 0
- Hepatotoxicity (acute) [7]: 0%
- Hepatotoxicity (benign tumour) [8]: 0
- Hepatotoxicity (granulomatous hepatitis) [9]: 0
- Hepatotoxicity (chronic liver disease) [10]: 0
- Hepatotoxicity (choleostasis) [11]: 0
- Hepatotoxicity (malignant tumour) [12]: 0
- Hepatotoxicity (moderate) [13]: 1
- Hepatotoxicity (cytolytic) [14]: 0

Compound: ADALIMUMAB
- Hepatotoxicity (cirrhosis) [1]: 0
- Hepatotoxicity (moderate) [2]: 12.1%
- Hepatotoxicity (steatosis) [3]: 0
- Hepatotoxicity (association with vascular disease) [4]: 0
- Hepatotoxicity (acute) [5]: 0
- Hepatotoxicity (severe hepatitis) [6]: 0
- Hepatotoxicity (acute) [7]: 0%
- Hepatotoxicity (benign tumour) [8]: 0
- Hepatotoxicity (granulomatous hepatitis) [9]: 0
- Hepatotoxicity (chronic liver disease) [10]: 0
- Hepatotoxicity (choleostasis) [11]: 0
- Hepatotoxicity (malignant tumour) [12]: 0
- Hepatotoxicity (moderate) [13]: 1
- Hepatotoxicity (cytolytic) [14]: 0
